# Source: patent US4959368A, “Therapeutic agent for neurological diseases” (Mitsui Petrochemical Industries Ltd., priority 1986, dated 1990)
# Assays:
# Acute toxicity, rat = assay type: in vivo; conditions: in vivo, po, read-out: Presumed LD50
# Method: (§1) The acute toxicity of the compounds of the invention was examined by the following method.
# (§2) Male ddy-strain 5-week old mice and male Wistar-strain 8 week old rats, five per group, were used as experimental animals. Each of the compounds was dissolved in saline and administered perorally, and the toxicity of the compound was assessed 24 hours after the administration.
# rats = test: Acute toxicity, rat; assay type: in vivo; conditions: 24 hours
# Method: as §1, §2
# [1] = test system: human neuroblastoma cell line GOTO; test: Activity on cell line GOTO (simple method); assay type: cell-based; conditions: Table 2 GOTO Run No. 2; 10 μg/ml; control 8.4
# Method: (§3) The biological activities in vitro of the compounds of formula (I) on cells of the nervous system were tested. The cells tested were human neuroblastoma cell line GOTO [see Sekiguchi, M., Oota, T., Sakakibara, K., Inui, N. & Fujii, G., Japan. J. Exp. Med., 49, 67-83 (1979)], and neuroblastoma cell line NB-1 [see Miyake, S., Shimo, Y., Kitamura, T., Nojyo, Y., Nakamura, T., Imkashuku, S. and Abe, T., The Autonomic Nervous System, 10, 115-120 (1973)], and mouse neuroblastoma cell line neuro-2a (Dainippon Pharmaceutical Co., Ltd.) which have been established as the cells of the nervous system. The above neuve cells were grown in an incubator at 37° C. in the presence of 5% carbon dioxide gas exponentially, and then cultivated for a certain period of time together with the compounds of formula (I).
# A culture medium [composed of 45% of RPMI 1640 medium, 45% modified Eagle's medium (MEM) and 10% of fetal calf serum (FCS) and containing penicillin G sodium (100 units/ml) and streptomycin sulfate (100 microgram/ml)] containing neurobalstoma cell line GOTO in the logarithmic growth period was poured in an amount of 2 ml each into polystyrene dishes (35 mm; made by Corning Co.) so that the cell concentration was 2 to 6×10^4 cells per dish, and the cells were cultured for 1 to 2 days in a carbon dioxide gas incubator containing 5% of carbon dioxide gas in air at 37° C. Then, the culture fluid was removed, and 2 ml of a fresh serum-free culture fluid (consisting of 50% of RPMI medium and 50% of MEM medium and containing penicillin G sodium and streptomycin sulfate in the same amounts as above) was added. At the same time, a presterilized PBS solution (phosphate buffered saline) of each of the test compounds in various concentrations was added to each of the dishes. After culturing for 24 hours, the number of living cells was counted. Furthermore, the culture was photographed, and from the photos, the number and length of neurites per cell were measured. The numer of living cells was counted for 3 to 6 dishes by resistance to staining with erythrosine dye. The number and length of the neurites were measured with regard to 6 photos (more than 200 cells per photo).
# (§4) As a simple method of evaluation, the number of cells have neurites with a length equal to, or larger than, the long diameter of the cell was divided by the total number of cells.
# [2] = test system: human neuroblastoma cell line GOTO; test: Activity on neuroblastoma cell line GOTO (cell number, number and length of neurites); assay type: cell-based; conditions: for Number of cells: control 3.17
# Procedure, shortened: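 GOTO cells were cultured 1–2 days at 37 °C, 5% CO2, then switched to serum-free RPMI/MEM (1:1) with compounds in PBS at various concentrations for 24 h. Living cells were counted by erythrosine exclusion (3–6 dishes); neurite number and length per cell were measured from photographs.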
# [3] = test system: mouse neuroblastoma cell line neuro-2a; test: Activity on cell line neuro-2a (simple method); assay type: cell-based; conditions: control 7.9
# Method: as §3, with “(I). […]” for “(I).”
# as §4
# Acute toxicity, mouse = assay type: in vivo; conditions: in vivo, po, Table 6, p.o., read-out: Presumed LD50
# Method: as §1, §2
# mice = test: Acute toxicity, mouse; assay type: in vivo; conditions: 24 hours
# Method: as §1, §2
# [4] = test system: mouse neuroblastoma cell line neuro-2a; test: Activity on neuro-2a, cells with outgrown neurites; assay type: cell-based; conditions: Table 3 Run No. 6, control 4.4 ± 0.9
# Procedure, shortened: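 Mouse neuro-2a cells in DMEM with FCS exposed to compounds for 24 h (up to 6 concentrations, triplicate runs), glutaraldehyde-fixed and methylene blue-stained. Proportion of cells bearing a neurite at least twice the cell's long diameter counted microscopically over ≥200 cells.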
# [5] = Table 1 Run No. 3, 1 μg/ml, control 1.94 ± 0.69, all *P <0.01
# [6] = Table 1 Run No. 3, 1 μg/ml, control 45.13 ± 22.71, all *P <0.01
# [7] = Table 2 neuro-2a Run No. 1, 1 μg/ml
# [8] = Table 2 neuro-2a Run No. 1, 10 μg/ml
compound,measurement,setting,value
CCn1ccc2nc(N3CCNCC3)ncc2c1=O [Compound 710],LD50 at 24 h,"Acute toxicity, rat; Table 6, p.o.",550 to 1000 mg/kg
same,Number of dead animals/number of test animals,"rats; Table 6, 300 mg/kg p.o.",1/5
same,Number of dead animals/number of test animals,"rats; Table 6, 500 mg/kg p.o.",2/5
same,Number of dead animals/number of test animals,"rats; Table 6, 1000 mg/kg p.o.",5/5
same,Average of the proportions,[1],15.02%
same,Number of neurites/cell (mean ± S.D.),"[2]; Table 1 Run No. 1, 10 μg/ml, control 2.09 ± 0.61",2.12 ± 0.51 neurites/cell
same,Number of cells (mean ± S.E.),"[2]; Table 1 Run No. 1, 10 μg/ml, control 14.34 ± 0.72",19.18 ± 0.67 × 10^4 /dish
same,Length of neurites (mean ± S.D.),"[2]; Table 1 Run No. 1, 10 μg/ml, control 70.10 ± 43.03",86.10 ± 50.70 μm/cell
same,Number of neurites/cell (mean ± S.D.),"[2]; Table 1 Run No. 1, 100 μg/ml, control 2.09 ± 0.61",1.71 ± 0.59 neurites/cell
same,Number of cells (mean ± S.E.),"[2]; Table 1 Run No. 1, 100 μg/ml, control 14.34 ± 0.72",11.92 ± 0.66 × 10^4 /dish
same,Length of neurites (mean ± S.D.),"[2]; Table 1 Run No. 1, 100 μg/ml, control 70.10 ± 43.03",47.34 ± 35.11 μm/cell
same,Number of neurites/cell (mean ± S.D.),"[2]; Table 1 Run No. 2, 1 μg/ml, control 2.06 ± 0.60",2.14 ± 0.63 neurites/cell
same,Number of cells (mean ± S.E.),"[2]; Table 1 Run No. 2, 1 μg/ml, control 12.30 ± 1.48",17.44 ± 1.50 × 10^4 /dish
same,Length of neurites (mean ± S.D.),"[2]; Table 1 Run No. 2, 1 μg/ml, control 55.00 ± 37.26",73.74 ± 43.49 μm/cell
same,Number of neurites/cell (mean ± S.D.),"[2]; Table 1 Run No. 2, 10 μg/ml, control 2.06 ± 0.60",2.09 ± 0.62 neurites/cell
same,Number of cells (mean ± S.E.),"[2]; Table 1 Run No. 2, 10 μg/ml, control 12.30 ± 1.48",15.15 ± 2.26 × 10^4 /dish
same,Length of neurites (mean ± S.D.),"[2]; Table 1 Run No. 2, 10 μg/ml, control 55.00 ± 37.26",62.74 ± 35.64 μm/cell
same,Number of cells,"[2]; Table 1 Run No. 3, 0.0 μg/ml (so in the source)",3.66 × 10^4 /dish
same,Number of neurites/cell (mean ± S.D.),[2]; [5],2.17 ± 0.79 neurites/cell
same,Number of cells,"[2]; Table 1 Run No. 3, 1 μg/ml",3.92 × 10^4 /dish
same,Length of neurites (mean ± S.D.),[2]; [6],60.93 ± 23.66 μm/cell
same,Average of the proportions,[3]; [7],15.97%
same,Average of the proportions,[3]; [8],13.70%
same,LD50 at 24 h,"Acute toxicity, mouse",300 to 550 mg/kg
same,Number of dead animals/number of test animals,"mice; Table 6, 300 mg/kg p.o.",0/5
same,Number of dead animals/number of test animals,"mice; Table 6, 500 mg/kg p.o.",3/5
same,Number of dead animals/number of test animals,"mice; Table 6, 1000 mg/kg p.o.",5/5
CCN1Cc2nc(N3CCNCC3)ncc2C1=O [Compound 616],LD50 at 24 h,"Acute toxicity, rat; Table 7, p.o.",> 1700 mg/kg
same,Number of dead animals/number of test animals,"rats; Table 7, 1700 mg/kg p.o.",0/5
same,Length of neurites (mean ± S.D.),"[2]; Table 1, Run No. 6 by footnote, 1 μg/ml, control 42.48 ± 19.64, all *P <0.01",56.68 ± 23.36 μm/cell
same,Number of neurites/cell (mean ± S.D.),"[2]; Table 1, Run No. 6 by footnote, 10 μg/ml, control 1.79 ± 0.80",2.13 ± 0.91 neurites/cell
same,Length of neurites (mean ± S.D.),"[2]; Table 1, Run No. 6 by footnote, 10 μg/ml, control 42.48 ± 19.64, all *P <0.01",57.96 ± 27.96 μm/cell
same,Number of neurites/cell (mean ± S.D.),"[2]; Table 1, second control group (Run No. 6 by footnote), 1 μg/ml, control 1.79 ± 0.80",2.04 ± 0.91 neurites/cell
same,Average of the proportions,"[3]; Table 2 neuro-2a Run No. 2, 1 μg/ml",15.79%
same,Average of the proportions,"[3]; Table 2 neuro-2a Run No. 2, 10 μg/ml",18.40%
same,Cells having neurites with a length at least twice the long diameter of cell/total number of cells,[4]; 0.3 mM,10.6 ± 1.5%
same,Cells having neurites with a length at least twice the long diameter of cell/total number of cells,[4]; 1 mM,10.3 ± 1.4%
same,Number of dead animals/number of test animals,"mice; Table 7, 1000 mg/kg p.o.",0/5
same,Number of dead animals/number of test animals,"mice; Table 7, 1700 mg/kg p.o.",0/5
same,Number of dead animals/number of test animals,"mice; Table 7, 3000 mg/kg p.o.",4/5
Cn1ccc2nc(N3CCNCC3)ncc2c1=O [Compound 706],LD50 at 24 h,"Acute toxicity, rat; Table 6, p.o.",550 to 1000 mg/kg
same,Number of dead animals/number of test animals,"rats; Table 6, 300 mg/kg p.o.",0/5
same,Number of dead animals/number of test animals,"rats; Table 6, 500 mg/kg p.o.",1/5
same,Number of dead animals/number of test animals,"rats; Table 6, 1000 mg/kg p.o.",3/5
same,Average of the proportions,[1],16.39%
same,Number of neurites/cell (mean ± S.D.),"[2]; Table 1 Run No. 3, 0.1 μg/ml, control 1.94 ± 0.69, *P <0.01",2.30 ± 0.75 neurites/cell
same,Number of cells,"[2]; Table 1 Run No. 3, 0.1 μg/ml",3.81 × 10^4 /dish
same,Length of neurites (mean ± S.D.),"[2]; Table 1 Run No. 3, 0.1 μg/ml, control 45.13 ± 22.71, *P <0.01",72.11 ± 26.58 μm/cell
same,Number of neurites/cell (mean ± S.D.),[2]; [5],2.26 ± 0.82 neurites/cell
same,Number of cells,"[2]; Table 1 Run No. 3, 1 μg/ml",4.12 × 10^4 /dish
same,Length of neurites (mean ± S.D.),[2]; [6],63.24 ± 28.17 μm/cell
same,Average of the proportions,[3]; [7],17.21%
same,Average of the proportions,[3]; [8],15.40%
same,LD50 at 24 h,"Acute toxicity, mouse",550 to 1000 mg/kg
same,Number of dead animals/number of test animals,"mice; Table 6, 300 mg/kg p.o.",0/5
same,Number of dead animals/number of test animals,"mice; Table 6, 500 mg/kg p.o.",2/5
same,Number of dead animals/number of test animals,"mice; Table 6, 1000 mg/kg p.o.",4/5
